Results on nine compounds are retold here after PubChem BioAssay (NCI).

Several values for one entry are separate records, joined by “and”; a condition that tells them apart may be missing. Identical values can stand only once.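 The compound was tested at five concentrations on cells cultured in 96-well plates, with a 48-hour exposure period. Abbreviation: GI50, concentration required for 50% inhibition of growth. TGI: total growth inhibition.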

Holding throughout (experiment): growth of human tumour cells (NCI), 48 h
Assay [1] concerns RXF 393 renal.
The test system of assay [2] is NCI/ADR-RES ovarian.
Assay [3] deals with SK-MEL-5 melanoma.
Assay [4] deals with HCT-116 colon.
The subject of assay [5] is SW-620 colon.
Assay [6] has as its system HT29 colon.
In assay [7] the test system is MCF7 breast.
Assay [8] concerns 786-0 renal.
Assay [9] concerns MDA-MB-435.
Assay [10] concerns NCI-H522 lung.

Regarding `CC12OC(c3ccccc3)=CC(c3ccc(Cl)cc3)=C1C(c1ccccc1)=CC2=O` (configuration not stated), the GI50 in [1] was 19.1 µM; in [2], 55.9 µM; in assay [3], 42.1 µM; in assay [4], 46.1 µM; in assay [5], 90.4 µM; in [6], 27.7 µM. The GI50 was 60.8 µM in assay [7], 94.7 µM in assay [8], 81.3 µM in assay [9] and 72.2 µM in [10]. In addition, the TGI in [1], in assay [2], in assay [3], in [4], in assay [5] and in [6] was above 100 µM each time. In addition, the TGI in [7], in assay [8], in assay [9] and in assay [10] was above 100 µM in each case.
Regarding `C=CCC(N[C@H](CO)c1ccccc1)c1ccc2ccccc2n1` (some centres not stated), the GI50 in assay [1], in [2], in assay [4], in [5], in assay [6] and in assay [8] was above 100 µM throughout. The GI50 in assay [9] and in assay [10] was above 100 µM in each case. The TGI in [1], in assay [2], in assay [4], in assay [5], in assay [6] and in assay [8] was above 100 µM in each case. Moreover, the TGI in assay [9] and in assay [10] was above 100 µM in each case.
As to `COc1cc2c(cc1OCCCOc1cc3c(cc1OC)C(=O)N1C[C@H](F)C[C@H]1C=N3)N=C[C@@H]1C[C@@H](F)CN1C2=O`, the GI50 in [1] is 2.4 µM; in assay [2], 11.9 µM; in assay [4], 6.4 µM; in [5], 4.2 µM; in [6], 17.3 µM; in assay [7], 3.09 µM. In addition, the GI50 is 8.45 µM in assay [8], 14.3 µM in assay [9] and 1.88 µM in assay [10]. The TGI is 7.6 µM in [1]; 26 µM in assay [2]; 42.8 µM in assay [4]; 20 µM in assay [5]; 41.9 µM in assay [6]; 18.1 µM in assay [7]. For the same compound, the TGI in assay [8] amounted to 20.6 µM; in assay [9], 27.4 µM; in [10] it was 4.59 µM.
With `Cc1c[nH]c2c(O)cc3c(c12)[C@H](CCl)CN3C(=O)c1cc2cc(NC(=O)Nc3ccc4[nH]c(C(=O)N5C[C@@H](CCl)c6c5cc(O)c5[nH]cc(C)c65)cc4c3)ccc2[nH]1`, the TGI is 70.8 nM and > 100 µM and 0.000888 µg/mL in assay [1]; 26.6 nM and 25.5 µM and 0.00138 µg/mL in [3]; > 100 µM and 0.00887 µg/mL in assay [6]; 21.9 µM and 0.00887 µg/mL and 8.88 µg/mL in assay [7]; 20.2 nM and 2e-06 µg/mL in assay [10]. The GI50 in assay [4] was 0.0031 µM; in [5], 0.0068 µM; in [6] it was 0.00416 ng/mL; in assay [8] it was 0.000203 µM; in [9], 0.0146 µM; in assay [10] it was 4.49 nM and 8.9e-07 µg/mL.
With `CCOC(=O)c1cc(C#N)c(=O)n(/N=C(\C)c2ccncc2)c1O`, the GI50 in [2], in assay [3], in [4], in assay [5], in assay [6] and in assay [7] was above 100 µM each time. In addition, the GI50 in [8] and in [9] was above 100 µM throughout. Besides, the TGI in assay [2], in [3], in assay [4], in assay [5], in assay [6] and in [7] was above 100 µM throughout. The TGI in [8] and in assay [9] was above 100 µM throughout.
Consider `CCN(CC)CCC(=O)NC1c2ccc(Cl)cc2Oc2c(C)cccc21` (configuration not stated), for which the TGI came out at 39 µM in assay [2]; 26.1 µM in assay [3]; 30.2 µM in assay [4]; 33.2 µM in [5]; 28.9 µM in [6]; 31 µM in [7]. Besides, the TGI in [8] was 25.2 µM; in [9], 28.3 µM; in [10], 31.6 µM.
Take `CCN1CCN(C(=O)[C@]23CC[C@@H](C)[C@H](C)[C@@H]2C2=CC[C@@H]4[C@@]5(C)C/C(=C/c6ccncc6)C(=O)C(C)(C)[C@@H]5CC[C@@]4(C)[C@]2(C)CC3)CC1`: the GI50 in assay [1] is 1.39 µM; in assay [2] it was 1.7 µM; in assay [3], 1.75 µM; in assay [5], 1.71 µM; in assay [6], 1.59 µM; in [7], 1.57 µM. Also, the results for the GI50 in assay [8] and in [9] were 1.73 µM and 1.62 µM, respectively. The TGI turned out to be 2.79 µM in assay [1]; 3.69 µM in assay [2]; 3.14 µM in [3]; 3.7 µM in assay [5]; 4.08 µM in assay [6]; 3.2 µM in assay [7]. In addition, the TGI in [8] came to 3.43 µM; in [9] it was 3.24 µM.
For `Cn1c([N+](=O)[O-])cnc1/C=C1\Oc2ccccc2C1=O`, the GI50 in assay [2] was 0.392 µM; in assay [3] it was 0.234 µM; in assay [4], 0.187 µM; in assay [5], 0.15 µM; in assay [6], 0.203 µM; in assay [7] it was 0.46 µM. For the same compound, the GI50 is 0.203 µM in [8], 0.175 µM in assay [9] and 0.552 µM in [10]. Besides, the TGI in [2] came out at 4.45 µM; in assay [3], 0.727 µM; in assay [4], 1.06 µM; in [5] it was 2.02 µM; in [6] it was 0.629 µM; in assay [7] it was 8.88 µM. The values for the TGI in assay [8], in [9] and in assay [10] were 3.67 µM, 0.395 µM and 2.26 µM, respectively.
For `O=C(/C=C/c1ccc(F)cc1)c1ccc(Cl)cc1Cl`, the GI50 in [1] was 30.5 µM; in assay [2] it was 38.4 µM; in [3], 50.8 µM; in assay [4], 16.6 µM; in [5] it was 29.7 µM; in assay [7], 20.6 µM. Further, the figures for the GI50 in [8], in [9] and in assay [10] were 45.2 µM, 50 µM and 47.7 µM, respectively. Also, the TGI was 93.4 µM in assay [1]; above 100 µM in assay [2]; above 100 µM in assay [3]; 31.3 µM in assay [4]; 79.2 µM in [5]; 62.5 µM in assay [7]. Also, the TGI in assay [8], in assay [9] and in [10] was above 100 µM in each case.
